Data on 9 compounds can be found in article PMC9414862, “In Vitro and In Silico Potential Inhibitory Effects of New Biflavonoids from Ochna rhizomatosa on HIV-1 Integrase and Plasmodium falciparum” (Pharmaceutics, 2022).

For test [1], the system named is Plasmodium falciparum strain NF54 (chloroquine-sensitive), erythrocytic stages. The test is described as follows: Antiplasmodial 3H-hypoxanthine incorporation assay. It is filed as cell-based. The settings on record: for IC50: Plasmodium falciparum. On the procedure:
The assessment of antiplasmodial activity in vitro was evaluated against the erythrocytic stages of chloroquine-sensitive Plasmodium falciparum strain NF54 using a ^3H-hypoxanthine incorporation assay previously described, of which the […] NF54 strain originated from South Africa, and the standard drug chloroquine was obtained from Sigma-Aldrich (St. Louis, MO, USA). Compounds were dissolved in DMSO at 10 μg/mL and added to parasite cultures incubated in RPMI 1640 medium without hypoxanthine, supplemented with HEPES (5.94 g/L), NaHCO3 (2.1 g/L), neomycin (100 U/mL), Albumax, and washed human red cells A^+ at 2.5% hematocrit (0.3% parasitemia). Serial sample dilutions of […] dilution steps covering a range from 100 to 0.002 μg/mL were prepared. The 96-well plates were incubated in a humidified atmosphere at 37 °C; 4% CO2; 3% O2 and 93% N2. After 48 h, 50 μL of ^3H-hypoxanthine (0.5 μCi) was added to each well.

Test [2] deals with T1, HIV-1 integrase (purified recombinant HIV-1 subtype C IN) (Human immunodeficiency virus type 1 group M subtype C, UniProt Q75002).
T1 construct: Recombinant HIV-1 subtype CIN was assembled on to the pre-processed donor DNA
T1 sequence (Q75002 1152-1439): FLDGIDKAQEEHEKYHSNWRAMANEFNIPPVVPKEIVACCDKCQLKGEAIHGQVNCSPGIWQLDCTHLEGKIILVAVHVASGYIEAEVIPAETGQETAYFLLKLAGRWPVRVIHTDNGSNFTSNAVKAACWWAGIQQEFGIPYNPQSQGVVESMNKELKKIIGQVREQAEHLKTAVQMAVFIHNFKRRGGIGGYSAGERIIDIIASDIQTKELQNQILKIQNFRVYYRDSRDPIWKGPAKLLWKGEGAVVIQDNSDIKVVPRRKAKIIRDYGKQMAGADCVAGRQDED
The test is described as follows: HIV-1 Integrase strand transfer inhibition assay. The format is biochemical. On the procedure:
The HIV-1 Integrase strand transfer inhibition assay was adapted from previously described methods. […] Following incubation at room temperature for 40 min and a stringent wash step, 5 µg/mL purified recombinant HIV-1 subtype CIN in integrase buffer 1 ([…] to ethanol, 50 µg/mL BSA, pH 7.5) was added to individual wells. […] Recombinant HIV-1 subtype CIN was assembled on to the pre-processed donor DNA through incubation for 45 min at room temperature. Strand transfer reaction was initiated through the addition of 10 µM (final concentration) double-stranded FITC-labelled target DNA (5′-[…]/36-FAM/-3′) annealed to (5′-[…]-/36-FAM/-3′) in integrase buffer 2 (same as buffer 1, except 25 µM MnCl2 was replaced with 2.5 µM MgCl2). After an incubation period of 60 min at 37 °C, the plates were washed using PBS containing 0.05% Tween 20 and 0.01% BSA, followed by the addition of peroxidase-conjugated sheep anti-FITC antibody (Thermo Scientific, Waltham, MA, USA) diluted 1:1000 in the same PBS buffer. Finally, the plates were washed and peroxidase substrate (Sure Blue Reserve™, KPL, Gaithersburg, MD, USA) was added to allow for detection at 620 nm using a Synergy MX (BioTek®) plate reader. Absorbance values were converted to % enzyme activity relative to the readings obtained from the control wells (enzyme without inhibitor).

Setting [3] is: chloroquine-sensitive P. falciparum NF54, mean ± SD, '-' in Table 3 = no activity, read-out: NF54: IC50 (antiplasmodial activity).
Setting [4] is: chloroquine-sensitive P. falciparum NF54, mean ± SD, '-' in Table 3 = no activity.
Where [5] appears, read: mean ± SD; '-' in Table 2 = no inhibition detected.
[6] abbreviates: mean ± SD; '-' in Table 2 = no inhibition detected; read-out: Assembly IC50 (anti-HIV-1 integrase activity).

Like-named read-outs stand apart in the source and are kept apart here.

For orientation: IC50 means the midpoint of a concentration-inhibition curve. With `O=C(/C=C/c1ccc(O)cc1)c1c(O)cc(O)c2c(C(=O)c3ccc(O)cc3O)c(-c3ccc(O)cc3)oc12` [Compound 6, calodenine B], the 50% inhibitory concentration (IC50) was more than 190 µM in test [1] (setting [3]) and more than 20 µM in test [2] (setting [6]). Besides, in test [1] (setting [4]), the “NF54: IC50 (antiplasmodial activity)” value is “no activity”. For the same compound, the “Assembly IC50 (anti-HIV-1 integrase activity)” value (from here on “Assembly IC50”) in test [2] (setting [5]) was “no inhibition detected”.

As for `COc1ccc(C(c2ccc(O)cc2)[C@@H](C(=O)c2ccc(O)cc2O)c2coc3cc(OC)ccc3c2=O)cc1` (stereo partly drawn) [Compound 3, (R)-3-(1-(2′,4′-dihydroxyphenyl)-3,3-bis(4″-hydroxy-4‴-methoxyphenyl)-1-oxopropan-2-yl)-4 methoxychromenone], the IC50 in test [1] (setting [3]) was 7.86 ± 5.12 µM; in test [2] (read-out: Assembly IC50 (anti-HIV-1 integrase activity); mean ± SD; '-' in Table 2 = no inhibition detected), more than 20 µM. Further, in test [2] (setting [5]), the “Assembly IC50” value is recorded as “no inhibition detected”.

On to `COc1ccc(C(c2ccc(O)cc2)[C@@H](C(=O)c2ccc(OC)cc2O)c2coc3cc(OC)ccc3c2=O)cc1` (some centres unmarked) [Compound 5, shweinfurthianone B], for which the values for the IC50 in test [1] (setting [3]) and in test [2] (setting [6]) were 5.11 ± 13.7 µM and more than 20 µM, respectively. Further, in test [2] (setting [5]), the “Assembly IC50” value was “no inhibition detected”.

Consider `COc1ccc(C(c2ccc(O)cc2)[C@@H](C(=O)c2ccc(O)cc2O)c2coc3cc(O)ccc3c2=O)cc1` (some centres unmarked) [Compound 4, schweinfurthianone A], for which the IC50 was 8.2 ± 0.93 µM in test [1] (setting [3]) and more than 20 µM in test [2] (setting [6]). The “Assembly IC50” value in test [2] (setting [5]) is “no inhibition detected”.

For the compound `CCN(CC)CCCC(C)Nc1ccnc2cc(Cl)ccc12` (centres unmarked) [Chloroquine, reference compound], in test [1] (NF54, read-out: NF54: IC50 (antiplasmodial activity)), the IC50 turned out to be 0.006 ± 0.002 µM.

For `COc1ccc(C(c2ccc(OC)cc2)[C@@H](C(=O)c2ccc(OC)cc2O)c2coc3cc(OC)ccc3c2=O)cc1` [Compound 2, (R)-3-(1-(2′-hydroxy-4′-methoxyphenyl)-3,3-bis(4″,4‴-dimethoxyphenyl)-1-oxopropan-2-yl)-4-methoxychromenone], the IC50 in test [1] (setting [3]) was 4.6 ± 6.09 µM; in test [2] (setting [6]), more than 20 µM.

As to `C[C@H]1[C@H](OC(=O)CCC(=O)O)O[C@@H]2O[C@@]3(C)CC[C@H]4[C@H](C)CC[C@@H]1[C@@]24OO3` [Artesumate, reference compound], the IC50 in test [1] (setting [3]) was 0.002 µM.

For `O=C(c1ccc(O)cc1O)[C@@H](c1coc2cc(O)ccc2c1=O)C(c1ccc(O)cc1)c1ccc(O)cc1` [Compound 1], the IC50 in test [1] (setting [3]) was more than 190 µM; in test [2] (read-out: Assembly IC50 (anti-HIV-1 integrase activity)), 0.047 ± 0.021 µM. Besides, the “NF54: IC50 (antiplasmodial activity)” value in test [1] (setting [4]) is “no activity”.

`COc1cc(-c2coc3cc(O)cc(OC)c3c2=O)ccc1O` [Compound 7, 4′,7-dihydroxy-3′,5-dimethoxyisoflavone]: the IC50 in test [1] (setting [3]) is more than 190 µM; in test [2] (setting [6]) it was more than 20 µM. The “NF54: IC50 (antiplasmodial activity)” value in test [1] (setting [4]) is “no activity”.
